Test results published in paper PMC8842605, “Novel Derivatives of diphenyl-1,3,4-oxadiazol as Ligands of Benzodiazepine Receptors; Synthesize, Binding Assay and Pharmacological Evaluation” (Iranian Journal of Pharmaceutical Research : IJPR, 2021).

What was measured:
benzodiazepine receptor = assay: Radioligand competition binding with [3H]-flumazenil; conditions: rat brain membrane; for IC50: 35 min at 30 °C, read-out: IC50 (95% CI); for Ki: Cheng-Prussof equation
Description: Temporarily, the brain tissue of Male Sprague-Dawley rats (200-250 g weight) were used as the source of the benzodiazepine receptors. These tissues were collected, homogenized in 20 mL of ice‐cold Tris‐HCl buffer and centrifuged at 600 g for 10 min. in the next step, the supernatant was centrifuged 37000xg for 15 min at 4 °C. […] The Bradford method using bovine serum albumin as a standard, was applied for quantification of protein in the separated membrane. Saturation and competition experiments are two basic methods of receptor binding studies. […] NSB was determined in parallel assays performed in the presence of 100 μM diazepam. Competition experiments were used to measure the percentage inhibition of radioligand specific binding (IC50) and affinity (Ki) of the novel synthesized ligands and diazepam, using the Cheng-Prussof equation.

[1] = tested on: maximal electro shock-induced seizure; assay: Maximal electro shock (MES) test; format: in vivo; conditions: Mus musculus, 0.5 h; mice, 30 min after administration; 60 Hz, 50 mA, 0.2 s; HLTE; read-out: ED50 (95% CI), MES test
Source text: (§1) Two useful seizure models (MES and PTZ) were organized for evaluation of the anticonvulsant activities of novel synthesized compounds. In these experiments, the capability of novel synthesized compounds to prevent the maximal electro shock-induced seizure and pentylenetetrazol-induced seizure were screened. MES test (60 Hz, 50 mA, 0.2 s) was done according to the method described by Toolabi et al. (2020). PTZ test was done Using the mothed described by Ranjbar-ekbatan et al. (2019). These experiments were applied 30 min after administration of the novel compounds. The number of HLTE (hind limb tonic extension) in the MES test and the number of dead animals in the PTZ test were counted ([30]–[32]).

mice [2] = assay: Elevated plus maze test; format: in vivo; conditions: Mus musculus, percentage of time spent in open arms, read-out: ED50 (95% CI), Elevated plus maze test
Description: To assay the anti-anxiety effects of novel synthesized compounds, the elevated plus-maze test was used. The apparatus of the elevated plus-maze test is prepared of two open arms (30 × 5 × 0.5 cm) and two close arms (30 × 5 × 35 cm) with an open roof and was set at a height of 50 cm above the floor.

mice [3] = assay: Open field test; format: in vivo; conditions: Mus musculus, ip, intraperitoneal, 30 min before test, total distance movement, read-out: ED50 (95% CI), Open field test
Description: To the assessment of the sedative effects and locomotor activities of the novel synthesized compounds, the open field test was performed. […] The total distance movement was recorded for 10 min by a digital camera and then was calculated by an automated tracking system (Ethovision XT software, Noldus, The Netherlands) ([24]).

mice [4] = assay: Pentobarbital induced sleep test; conditions: Mus musculus, read-out: ED50 (95% CI), Pentobarbital induced Sleeping test
mice [5] = assay: Grip strength test; format: in vivo; conditions: Mus musculus, 0.5 h, read-out: ED50 (95% CI), Grip strength test
Description: To assessment the muscle relaxant effects of novel synthesized compounds by measuring the maximum force applied to the digital force meter, the grip strength test was prepared. This assessment was guided using the modified method explained by Bachstetter et al. (2014). The test was repeated 3 times for each mouse, 30 min after injection of the novel compounds ([29]).

[6] = tested on: pentylenetetrazol-induced seizure; assay: Pentylenetetrazol (PTZ) test; format: in vivo; conditions: Mus musculus, 0.5 h; mice, 30 min after administration; number of dead animals; read-out: ED50 (95% CI), PTZ test
Source text: as §1

mice [7] = assay: Passive avoidance test; format: in vivo; conditions: Diazepam 2 mg/kg
Source text: To determine the effects of novel synthesized compounds on learning and memory disorder, the passive avoidance test was done. The passive avoidance apparatus consists of two compartments, that one of them is brightly lit (white compartment) and another one is dimly lit (black compartment). A sliding door divides these two compartments. […] After arriving in the black compartment, it was received a mild unpleasant electrical stimulation (0.5 mA for 2 s) through the grid floor. During the test phase, the animal was relocated in the white compartment. However, there was no electric stimulation in the dark compartment. The latency to enter the dark compartment was recounted ([34],[35]).

mice [8] = assay: Rotarod test; format: in vivo; conditions: 30 min after injection, 6 rpm, 1 min, Diazepam 2 mg/kg
Description: For evaluation of the motor coordination and balance capability, the rotarod test was used. Concisely, 30 min after injection of the novel compounds and Diazepam (2 mg/kg), each animal was located on a rotating rod (6 rpm, 1 min). In this experiment, the average time latency to fall for each animal was noted ([33]).

[9] = mice, 30 min after injection, maximum force

## O=C(Nc1ccccc1-c1nnc(-c2ccccc2)o1)c1ccccc1 [Compound 7a, N-(2-(5-phenyl-1,3,4-oxadiazol-2-yl)phenyl)benzamide]
Benzodiazepine receptor
  IC50: 10.2 nM
  Ki: 5.95 nM
[1]
  ED50: 235 mg/kg
Mice [2]
  ED50: 15.3 mg/kg
Mice [3]
  ED50: 27.7 mg/kg
Mice [4]
  ED50: 22.7 mg/kg
other
  melting point: 188 to 189 °C
Mice [5]; [9]
  ED50: 34.9 mg/kg
[6]
  ED50: 276 mg/kg

## O=C(Nc1ccccc1-c1nnc(-c2ccccc2)o1)c1ccc(Cl)cc1 [Compound 7b, 4-chloro-N-(2-(5-phenyl-1,3,4-oxadiazol-2-yl)phenyl)benzamide]
Benzodiazepine receptor
  IC50: 7.62 nM
  Ki: 4.43 nM
[1]
  ED50: 163 mg/kg
Mice [2]
  ED50: 11.8 mg/kg
Mice [3]
  ED50: 21.3 mg/kg
Mice [4]
  ED50: 19.4 mg/kg
other
  melting point: 195 to 197 °C
Mice [5]; [9]
  ED50: 31.5 mg/kg
[6]
  ED50: 180 mg/kg

## O=C(Nc1ccccc1-c1nnc(-c2ccccc2)o1)c1ccc(F)cc1 [Compound 7c, 4-fluoro-N-(2-(5-phenyl-1,3,4-oxadiazol-2-yl)phenyl)benzamide]
Benzodiazepine receptor
  IC50: 6.05 nM
  Ki: 3.51 nM
[1]
  ED50: 105 mg/kg
Mice [2]
  ED50: 13.7 mg/kg
Mice [3]
  ED50: 19.7 mg/kg
Mice [4]
  ED50: 17.1 mg/kg
other
  melting point: 189 to 190 °C
Mice [5]; [9]
  ED50: 30.9 mg/kg
[6]
  ED50: 118 mg/kg

## Cc1ccc(C(=O)Nc2ccccc2-c2nnc(-c3ccccc3)o2)cc1 [Compound 7d, 4-methyl-N-(2-(5-phenyl-1,3,4-oxadiazol-2-yl)phenyl)benzamide]
Benzodiazepine receptor
  IC50: 4.26 nM
  Ki: 2.47 nM
[1]
  ED50: 92.5 mg/kg
Mice [2]
  ED50: 12.6 mg/kg
Mice [3]
  ED50: 18.8 mg/kg
Mice [4]
  ED50: 13.1 mg/kg
other
  melting point: 200 to 202 °C
Mice [5]; [9]
  ED50: 29.4 mg/kg
[6]
  ED50: 109 mg/kg

## O=C(Nc1ccccc1-c1nnc(-c2ccccc2)o1)c1ccc([N+](=O)[O-])cc1 [Compound 7e, 4-nitro-N-(2-(5-phenyl-1,3,4-oxadiazol-2-yl)phenyl)benzamide]
Benzodiazepine receptor
  IC50: 9.16 nM
  Ki: 5.32 nM
[1]
  ED50: 24.2 mg/kg
Mice [2]
  ED50: 9.96 mg/kg
Mice [3]
  ED50: 19.1 mg/kg
Mice [4]
  ED50: 19.6 mg/kg
other
  melting point: 195 to 197 °C
Mice [5]; [9]
  ED50: 25.7 mg/kg
[6]
  ED50: 45.2 mg/kg

## COc1ccc(C(=O)Nc2ccccc2-c2nnc(-c3ccccc3)o2)cc1 [Compound 7f, 4-methoxy-N-(2-(5-phenyl-1,3,4-oxadiazol-2-yl)phenyl)benzamide]
Benzodiazepine receptor
  IC50: 3.03 nM
  Ki: 1.76 nM
[1]
  ED50: 136 mg/kg
Mice [2]
  ED50: 12.7 mg/kg
Mice [3]
  ED50: 14.5 mg/kg
Mice [4]
  ED50: 9.91 mg/kg
other
  melting point: 216 to 217 °C
Mice [5]; [9]
  ED50: 26.7 mg/kg
[6]
  ED50: 136 mg/kg

## CC(=O)Nc1ccccc1-c1nnc(-c2ccccc2)o1 [Compound 7g, N-(2-(5-phenyl-1,3,4-oxadiazol-2-yl)phenyl)acetamide]
Benzodiazepine receptor
  IC50: 2.78 nM
  Ki: 1.61 nM
[1]
  ED50: 186 mg/kg
Mice [2]
  ED50: 12.8 mg/kg
Mice [3]
  ED50: 14 mg/kg
Mice [4]
  ED50: 9.45 mg/kg
other
  melting point: 155 to 157 °C
Mice [5]; [9]
  ED50: 28.8 mg/kg
[6]
  ED50: 147 mg/kg

## CCC(=O)Nc1ccccc1-c1nnc(-c2ccccc2)o1 [Compound 7h, N-(2-(5-phenyl-1,3,4-oxadiazol-2-yl)phenyl) propionamide]
Benzodiazepine receptor
  IC50: 2.57 nM
  Ki: 1.49 nM
[1]
  ED50: 118 mg/kg
Mice [2]
  ED50: 11.8 mg/kg
Mice [3]
  ED50: 10.1 mg/kg
Mice [4]
  ED50: 5.28 mg/kg
other
  melting point: 163 to 165 °C
Mice [5]; [9]
  ED50: 24.6 mg/kg
[6]
  ED50: 136 mg/kg

## O=C(O)c1ccccc1C(=O)Nc1ccccc1-c1nnc(-c2ccccc2)o1 [Compound 7i, 2-((2-(5-phenyl-1,3,4-oxadiazol-2-yl)phenyl)carbamoyl)benzoic acid]
Benzodiazepine receptor
  IC50: 1.54 nM
[1]
  ED50: 26.7 mg/kg
Mice [2]
  ED50: 8.71 mg/kg
Mice [3]
  ED50: 7.14 mg/kg
Mice [4]
  ED50: 4.64 mg/kg
other
  melting point: 196 to 198 °C
Mice [5]; [9]
  ED50: 13.2 mg/kg
[6]
  ED50: 45.1 mg/kg

## O=C(O)CCC(=O)Nc1ccccc1-c1nnc(-c2ccccc2)o1 [Compound 7j, 4-oxo-4-((2-(5-phenyl-1,3,4-oxadiazol-2-yl)phenyl)amino)butanoic acid]
Benzodiazepine receptor
  IC50: 1.66 nM
  Ki: 0.96 nM
[1]
  ED50: 40.8 mg/kg
Mice [2]
  ED50: 9.77 mg/kg
Mice [3]
  ED50: 8.9 mg/kg
Mice [4]
  ED50: 4.98 mg/kg
other
  melting point: 159 to 160 °C
Mice [5]; [9]
  ED50: 17.1 mg/kg
[6]
  ED50: 60.9 mg/kg

## CN1C(=O)CN=C(c2ccccc2)c2cc(Cl)ccc21 [Diazepam, reference compound]
Mice [7]
  latency to enter the dark compartment in passive avoidance test vs control: significant reduction in latency to enter the dark compartment
Benzodiazepine receptor
  IC50: 1.71 nM
  Ki: 0.99 nM
[1]
  ED50: 1.32 mg/kg
Mice [2]
  ED50: 2.24 mg/kg
Mice [3]
  ED50: 1.69 mg/kg
Mice [4]
  ED50: 1.98 mg/kg
Mice [8]
  latency to fall in rotarod test vs control: significant decrease in latency to fall
Mice [5]
  ED50: 2.27 mg/kg
[6]
  ED50: 1.01 mg/kg
